Test results reported in ChEMBL document CHEMBL1136737, “Virtual screening for submicromolar leads of tRNA-guanine transglycosylase based on a new unexpected binding mode detected by crystal structure analysis” (J Med Chem, 2003).

What follows are compounds tested against Queuine tRNA-ribosyltransferase (Zymomonas mobilis (strain ATCC 31821 / ZM4 / CP4), UniProt P28720) (assay: Inhibitory activity against eubacterial tRNA guanine transglycosylase (TGT) from Zymomonas mobilis).
Queuine tRNA-ribosyltransferase, sequence (P28720 whole entry): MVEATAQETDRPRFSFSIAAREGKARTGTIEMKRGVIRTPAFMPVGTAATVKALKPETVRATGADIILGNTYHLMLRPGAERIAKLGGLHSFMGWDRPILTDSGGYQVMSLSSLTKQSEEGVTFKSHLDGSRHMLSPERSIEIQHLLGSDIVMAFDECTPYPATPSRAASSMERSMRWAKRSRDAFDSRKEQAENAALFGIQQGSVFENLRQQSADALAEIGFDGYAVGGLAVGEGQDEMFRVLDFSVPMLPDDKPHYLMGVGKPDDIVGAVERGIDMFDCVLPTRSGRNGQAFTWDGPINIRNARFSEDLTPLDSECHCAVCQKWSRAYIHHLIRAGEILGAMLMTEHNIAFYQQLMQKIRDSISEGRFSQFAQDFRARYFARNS

First: Cc1cnc2nc(N)nc(O)c2n1
Second: Nc1nc(O)c2[nH]c(N3CCCCC3)nc2n1
The Ki of the first is 150-fold lower: 0.25 µM for the first, 37 µM for the second.

Compared with Nc1c2c(O)nc(O)cc2nn1CCO, Nc1nc(O)c2[nH]c(SCc3ccc(Cl)cc3)nc2n1 is 3-fold lower in Ki: 8.1 µM for the first, 2.7 µM for the second. The second binds more tightly here.

Compared with O=c1[nH][nH]c(=O)c2[nH]cnc12, O=c1[nH][nH]c(=O)c2c(O)c3sccc3nc12 is 40-fold lower in Ki: 200 µM for the first, 5 µM for the second.

First: Cc1ccc2[nH]c3nnc(N)c-3cc2c1
Second: NNC(=O)c1cc2cc(F)ccc2[nH]1
The Ki of the first is 2.2-fold higher: 156 µM for the first, 72 µM for the second. The second binds more tightly here.

First: Nc1[nH]nc2nc(-c3ccccc3)[nH]c(=O)c12
Second: Nc1nc2nc(-c3ccccc3)cnc2c(=O)[nH]1
The Ki of the first is 66-fold higher: 249 µM for the first, 3.8 µM for the second.

Compared with Cc1csc2c(O)c3c(=O)[nH][nH]c(=O)c3nc12, Nc1cccc2c(=O)[nH][nH]c(=O)c12 is 7.7-fold higher in Ki: 4.7 µM for the first, 36 µM for the second.

With Nc1nc2nccnc2c(=O)[nH]1 [PTERINE] the Ki was 0.6 µM.
